The record followed here is patent US20260217656A1, “Compounds Affecting KRAS” (UNIVERSITAT DE BARCELONA, priority 2022, published 2026).

Entries after “also recorded” stand apart in the source; their conditions may differ.

Test [1] deals with Ras effectors ERK and AKT in DLD-1 cells. In words: Western blot of downstream RAS signaling (P-ERK, P-AKT, P-MEK) in serum-starved DLD-1 cells. In kind it is cell-based, human. The settings on record: 100 μM; for activation of AKT and ERK / relative capacity to activate Ras effectors ERK and AKT among the compounds: DLD-1 serum-starved cells, 3 hours. The text has this: DLD-1 (KRASWT/G13D) (clone V15, #HD PAR-086) colorectal adenocarcinoma cell line and DLD-1 knockout of mutant KRAS allele, DLD-1 KO (KRASWT/−) (clone DWT7, #HD105-002), were obtained from Horizon Discovery Ltd. (Cambridge, UK). hTERT-RPE (KRASWT/WT) immortalized retinal pigment epithelial human cell line was obtained from the […] (ATCC). DLD-1 KO cells stably expressing HA-KRAS G12V were previously generated in our laboratory (Cabot et al., 2021). All cells were grown in DMEM-HAM s F12 (1:1) supplemented with 10% foetal bovine serum (Biological Industries, Israel), penicillin, streptomycin, and nonessential amino acids. Cells were tested once per month for mycoplasma contamination.
Cells were seeded in a media containing 10% FBS for 24 hours and then they were serum starved (0.1% FBS) for the next 24 hours. Afterwards, they were incubated with the different compounds during the times specified in each figure. When indicated, also in order to activate downstream KRAS cell signalling, treatment for 10 minutes with EGF (50 ng/mL) (Sigma-Aldrich) was performed.
Proteins were resolved by SDS-PAGE, transferred onto PVDF membranes (Immobilon-P, Millipore) and Western blot was performed as previously described (Cabot et al, Oncogene 2021). The following primary antibodies were used: anti-c-RAF (BD Transduction 610151, 1:500); anti-phospho-c-RAF S338 (Cell Signaling 9427, 1:500); anti-AKT (Cell Signaling 9272, 1:1000); anti-phospho-AKT T308 (Cell Signaling 4056, 1:1000); anti-phospho-MEK1/2 S221 (Cell Signalling […]); anti-p44/42 MAPK (ERK1/2) (Cell Signaling 9102, 1:2000); anti-phospho-p44/42 MAPK(ERK1/2) T202/Y204 (Cell Signaling 4370, 1:2000); anti-HA (Sigma-Aldrich H6908, 1:1000); anti-cleaved-caspase-3 (Asp175) (Cell Signaling 9661, 1:1000); HRP-coupled secondary antibodies used: goat anti-rabbit (BioRad 170-6515, 1:3000) or goat anti-mouse (BioRad 170 6516, 1:3000).
For analysis of RAS signalling, cells were lysed in a buffer containing 67 mM Tris-HCl pH 6.8 and 2% SDS and then the samples were heated at 97° C. for 15 minutes. Protein concentration of the lysates was assessed using the Lowry method. An aliquot of […] of protein per sample was loaded onto the gels.
We first analyzed the effect of P14 on the activation of downstream RAS signaling pathways (RAF/MEK/ERK and PI3K/AKT) in DLD-1 cells (CRC cells carrying one oncogenic KRAS allele). To this end, DLD-1 serum-starved cells (0.1% FCS) were treated with P14 (100 μM) at different times, and activation of AKT and ERK was evaluated by Western blot. […] As a 3-hour treatment was associated with major effects, we chose this duration for the subsequent experiments with the other compounds. Next, DLD-1 serum-starved cells were treated with P14A-P14C at 100 μM for 3 hours and activation of AKT and ERK was assessed as above. […] The kinetics of RAS downstream signaling was analyzed in P14B-treated cells compared to 10% FBS serum.
In general terms: Immunoblotting shows a protein as a band on a membrane.

The test system of test [2] is Panc-1 cells. In words: Cell Titre Glo viability assay, Panc-1. In kind it is cell-based. The settings on record: Panc-1 cells (KRAS mutant G12D), after five days of treatment. The protocol:
In the next study, compounds were tested against cancer cells: pancreatic cancer cells (Panc-1), ovarian cancer cells (SW626) and uterine sarcoma cells (Mes-sa). The data generated using Cell Titre Glo® assays under standard conditions where the cells are grown in 384 well plates, then placed under continuous pressure of treatment for the relevant time period before being halted and assayed. The data collected is then plotted for analysis.
FIG. […]

Regarding `Cc1n[nH]c(O)c1C(c1ccc(F)cc1)c1c(C)n[nH]c1O` [Example P14A], in test [1], the “activation of AKT and ERK” value is given as “increase AKT and/or ERK signalling”; the “relative capacity to activate Ras effectors ERK and AKT among the compounds” value is listed as “highest activation of both Ras effectors”.
Turning to `Cc1n[nH]c(O)c1C(c1ccc2c(c1)OCO2)c1c(C)n[nH]c1O` [Example P14C], in test [1], the “activation of AKT and ERK” value was “activated AKT and ERK kinases; also recorded: increase AKT and/or ERK signalling”.
Regarding `Cc1n[nH]c(O)c1C(c1ccccc1OCc1ccc(Cl)cc1)c1c(C)n[nH]c1O` [Example P14], the “P-ERK and P-AKT levels, time course” value in test [1] (DLD-1 serum-starved cells (0.1% FCS), 3 and 6 hours) is “significantly increased P-ERK and P-AKT”. Besides, in test [1], the “activation of AKT and ERK” value was “activated AKT and ERK kinases; also recorded: increase AKT and/or ERK signalling”; the “relative capacity to activate Ras effectors ERK and AKT among the compounds” value is “most efficient”.
By IC50 is commonly meant the concentration at which inhibition is half-maximal. As to `COc1ccc(C(c2c(C)n[nH]c2O)c2c(C)n[nH]c2O)cc1OCCc1ccc(Cl)cc1` [P14(J)SD], in test [2], the IC50 was < 20 µM and the “response among the molecules tested” value is on record as “best response”.
